From the supplement of paper PMC10331698
± gives the standard deviation of the averaged measurements.

What was measured:
Experiment in all cases: level (log10 ratio to DMSO vehicle control); higher = higher biomarker level / cell amount than vehicle control
Octafluoroadipamide = compound: NC(=O)C(F)(F)C(F)(F)C(F)(F)C(F)(F)C(N)=O [Octafluoroadipamide]; settings: in DMSO
Method: (§1)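 BioMAP Diversity Plus panel of 12 human primary cell co-culture systems (3C, 4H, LPS, SAg, BT, BF4T, BE3C, CASM3C, HDF3CGF, KF3CT, MyoF, Mphg). Compounds were added 1 h before stimulation and left for 24 h (MyoF 48 h; BT 72 h for soluble read-outs or 6 d for IgG). Biomarkers were read by ELISA, cytotoxicity by SRB, PBMC viability and proliferation by Alamar Blue. Each well value was divided by the mean of 8 DMSO control wells on the same plate and log10 transformed; duplicate blinded samples were tested at 4 concentrations.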

[1] = compound: FC(F)(F)C(F)(F)C(F)(F)C(F)(F)C(F)(F)C(F)(F)CC1CO1 [3-(Perfluorohexyl)-1,2-epoxypropane]; settings: in DMSO
Method: as §1

[2] = compound: O=C(O)C(F)(F)C(F)(F)C(F)(F)C(F)(F)C(F)(F)C(F)(F)C(F)(F)C(F)(F)C(F)(F)C(F)F [11-H-Perfluoroundecanoic acid]; settings: in DMSO
Method: as §1

[3] = compound: O=S(=O)(Cl)C(F)(F)C(F)(F)C(F)(F)C(F)(F)C(F)(F)C(F)(F)C(F)(F)C(F)(F)F [Perfluoro-1-octanesulfonyl chloride]; settings: in DMSO
Method: as §1

[4] = compound: NC(=O)C(F)(F)C(F)(F)C(F)(F)C(F)F; settings: in DMSO
Method: as §1

[5] = compound: FC(F)(F)C(F)(F)C(F)(F)C(F)(F)C(F)(F)C(F)(F)C(F)(F)I [1-Iodopentadecafluoroheptane]; settings: in DMSO
Method: as §1

[6] = compound: NS(=O)(=O)C(F)(F)C(F)(F)C(F)(F)C(F)(F)C(F)(F)C(F)(F)F [Perfluorohexanesulfonamide]; settings: in DMSO
Method: as §1

[7] = compound: C=CC(=O)OCC(F)(F)C(F)(F)C(F)(F)COC(=O)C=C [1H,1H,5H,5H-Perfluoro-1,5-pentanediol diacrylate]; settings: 6700 nM; in DMSO
Method: as §1

[8] = compound: FC(F)(F)C(F)(F)C(F)(F)CC1CO1 [1H,1H-Heptafluorobutyl epoxide]; settings: in DMSO
Method: as §1

[9] = compound: C=C(C)C(=O)OCCC(F)(F)C(F)(F)C(F)(F)C(F)(F)C(F)(F)C(F)(F)F [6:2 Fluorotelomer methacrylate]; settings: in DMSO
Method: as §1

[10] = compound: O=S(=O)(O)C(F)(F)C(F)(F)C(F)(F)C(F)(F)C(F)(F)C(F)(F)C(F)(F)C(F)(F)C(F)(F)C(F)(F)F [Sodium perfluorodecanesulfonate]; settings: in DMSO
Method: as §1

[11] = compound: COC(=O)C(F)(F)C(F)(F)OC(F)(C(F)(F)F)C(F)(F)OC(F)=C(F)F [Methyl perfluoro(3-(1-ethenyloxypropan-2-yloxy)propanoate)]; settings: in DMSO
Method: as §1

Heptafluorobutyl iodide = compound: FC(F)(F)C(F)(F)C(F)(F)CI [Heptafluorobutyl iodide]; settings: in DMSO
Method: as §1

Hexafluoroamylene glycol = compound: OCC(F)(F)C(F)(F)C(F)(F)CO [Hexafluoroamylene glycol]; settings: in DMSO
Method: as §1

[12] = compound: O=S(=O)(F)C(F)(F)C(F)(F)C(F)(F)C(F)(F)C(F)(F)C(F)(F)C(F)(F)C(F)(F)F [Perfluorooctanesulfonyl fluoride]; settings: in DMSO
Method: as §1

[13] = compound: O=C(O)C=CC(F)(C(F)(F)F)C(F)(F)F [3-(Perfluoroisopropyl)-2-propenoic acid]; settings: in DMSO
Method: as §1

[14] = compound: FC(F)(F)C(F)(F)CNCC(F)(F)C(F)(F)F [Bis(1H,1H-perfluoropropyl)amine]; settings: in DMSO
Method: as §1

Nonafluoropentanamide = compound: NC(=O)C(F)(F)C(F)(F)C(F)(F)C(F)(F)F [Nonafluoropentanamide]; settings: in DMSO
Method: as §1

[15] = compound: O=S(=O)(O)CCC(F)(F)C(F)(F)C(F)(F)C(F)(F)C(F)(F)C(F)(F)F [6:2 Fluorotelomer sulfonic acid]; settings: in DMSO
Method: as §1

BE3C:CD54/ICAM-1 was tested, and the “level (log10)” value (Octafluoroadipamide; 6700 nM) was -0.0135 ± 0.025, the “level (log10)” value (Octafluoroadipamide; 20000 nM) was -0.0185 ± 0.016 and the “level (log10)” value (Octafluoroadipamide; 60000 nM) was 0.016 ± 0.034. For the same test system, the “level (log10)” value ([1]; 6700 nM) was 0.0035 ± 0.00071, the “level (log10)” value ([1]; 20000 nM) was 0 ± 0.0071 and the “level (log10)” value ([1]; 60000 nM) was -0.0005 ± 0.005. For the same test system, the “level (log10)” value ([2]; 6700 nM) was -0.0105 ± 0.0021, the “level (log10)” value ([2]; 20000 nM) was -0.35 ± 0.031 and the “level (log10)” value ([3]; 6700 nM) was -0.0045 ± 0.0021. For the same test system, the “level (log10)” value ([3]; 20000 nM) was 0.036 ± 0.0071, the “level (log10)” value ([3]; 60000 nM) was -0.69 ± 0.11 and the “level (log10)” value ([4]; 6700 nM) was -0.006 ± 0.0042. The “level (log10)” value ([4]; 20000 nM) was -0.002 ± 0.0042, the “level (log10)” value ([4]; 60000 nM) was 0.0155 ± 0.016 and the “level (log10)” value ([5]; 6700 nM) was -0.0125 ± 0.026. For the same test system, the “level (log10)” value ([5]; 20000 nM) was 0.006 ± 0.013, the “level (log10)” value ([6]; 6700 nM) was -0.0105 ± 0.025 and the “level (log10)” value ([6]; 20000 nM) was 0.003 ± 0.0028. For the same test system, the “level (log10)” value ([6]; 60000 nM) was 0.017 ± 0.013, the “level (log10)” value [7] was -0.018 ± 0.014 and the “level (log10)” value ([8]; 6700 nM) was 0.001 ± 0.0028. The “level (log10)” value ([8]; 20000 nM) was -0.013 ± 0.034, the “level (log10)” value ([8]; 60000 nM) was 0.0055 ± 0.015 and the “level (log10)” value ([9]; 6700 nM) was -0.0055 ± 0.0064. The “level (log10)” value ([9]; 20000 nM) was -0.0085 ± 0.011, the “level (log10)” value ([9]; 60000 nM) was 0.015 ± 0.0099 and the “level (log10)” value ([10]; 1500 nM) was 0.0015 ± 0.029. The “level (log10)” value ([10]; 4400 nM) was -0.0075 ± 0.00071, the “level (log10)” value ([10]; 13000 nM) was 0.034 and the “level (log10)” value ([10]; 40000 nM) was 0.0425 ± 0.011. The “level (log10)” value ([11]; 6700 nM) was -0.0205 ± 0.005, the “level (log10)” value ([11]; 20000 nM) was -0.017 ± 0.0014 and the “level (log10)” value (Heptafluorobutyl iodide; 6700 nM) was 0.013 ± 0.021. For the same test system, the “level (log10)” value (Heptafluorobutyl iodide; 20000 nM) was 0.005 ± 0.0071, the “level (log10)” value (Heptafluorobutyl iodide; 60000 nM) was 0.0085 ± 0.0078 and the “level (log10)” value (Hexafluoroamylene glycol; 6700 nM) was 0.007 ± 0.016. The “level (log10)” value (Hexafluoroamylene glycol; 20000 nM) was 0.002 ± 0.0057, the “level (log10)” value (Hexafluoroamylene glycol; 60000 nM) was -0.001 ± 0.0014 and the “level (log10)” value ([12]; 6700 nM) was -0.0035 ± 0.019. The “level (log10)” value ([12]; 20000 nM) was -0.0055 ± 0.0092, the “level (log10)” value ([12]; 60000 nM) was 0.0045 ± 0.026 and the “level (log10)” value ([13]; 6700 nM) was 0.002 ± 0.0057. The “level (log10)” value ([13]; 20000 nM) was -0.005, the “level (log10)” value ([13]; 60000 nM) was 0.004 ± 0.0071 and the “level (log10)” value ([14]; 6700 nM) was -0.012 ± 0.0085. The “level (log10)” value ([14]; 20000 nM) was -0.008 ± 0.0099, the “level (log10)” value ([14]; 60000 nM) was 0.0085 ± 0.044 and the “level (log10)” value (Nonafluoropentanamide; 6700 nM) was 0.0025 ± 0.012. The “level (log10)” value (Nonafluoropentanamide; 20000 nM) was -0.009 ± 0.028, the “level (log10)” value (Nonafluoropentanamide; 60000 nM) was 0.0025 ± 0.03 and the “level (log10)” value ([15]; 6700 nM) was -0.006 ± 0.0085. The “level (log10)” value ([15]; 20000 nM) was -0.0145 ± 0.005 and the “level (log10)” value ([15]; 60000 nM) was -0.04 ± 0.023.
